The values that follow come from patent publication US12606548B2, “Fungicidal oxadiazoles” (FMC CORPORATION, priority 2019, dated 2026).

Format in all cases: in vivo
One assay relates to Zymoseptoria tritici. The assay is described as follows: Test B: test suspension sprayed on wheat seedlings, inoculated next day with Zymoseptoria tritici (wheat leaf blotch), visual disease rating. Conditions: for Test B rating (% disease control): relative to the controls. The text has this:
General protocol for preparing test suspensions for Tests A-C: the test compounds were first dissolved in acetone in an amount equal to 3% of the final volume and then suspended at the desired concentration (in ppm) in acetone and purified water (50/50 mix by volume) containing 250 ppm of the surfactant PEG400 (polyhydric alcohol esters). The resulting test suspensions were then used in Tests A-C.
The test suspension was sprayed to the point of run-off on wheat seedlings. The following day the seedlings were inoculated with a spore suspension of Zymoseptoria tritici (the causal agent of wheat leaf blotch) and incubated in a saturated atmosphere at 24° C., for 48 h, and then moved to a growth chamber at 20° C., for 17 days, after which time visual disease ratings were made.
Results for Tests A-C are given in Table A. In the Table, a rating of 100 indicates 100% disease control and a rating of 0 indicates no disease control (relative to the controls). A dash (-) indicates the compound was not tested. The test suspensions were sprayed at the concentration listed in the column “Rate in ppm”, unless otherwise indicated. An asterisk “*” next to the rating indicates a 250 ppm test suspension was used, a double asterisk “**” next to the rating indicates a 100 ppm test suspension was used, and a triple asterisk “***” next to the rating indicates a 50 ppm test suspension was used.

For a further assay, the system named is Phakopsora pachyrhizi. The assay is described as follows: Test A: test suspension sprayed on soybean seedlings, inoculated next day with Phakopsora pachyrhizi (Asian soybean rust), visual disease rating. Conditions: for Test A rating (% disease control): Rate 10 ppm test suspension, relative to the controls. Put shortly: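 Compounds first dissolved in acetone (3% of final volume), then suspended in acetone/water 50/50 with 250 ppm PEG400 and sprayed to run-off on soybean seedlings at the stated ppm rate. Inoculated next day with P. pachyrhizi spores; 24 h saturated atmosphere at 22 °C, then 8 days in growth chamber at 22 °C before visual disease rating.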

In assay [1] the test system is Puccinia recondita f. sp. tritici. The assay is described as follows: Test C: test suspension sprayed on wheat seedlings, inoculated next day with Puccinia recondita f. sp. tritici (wheat leaf rust), visual disease rating. Conditions: for Test C rating (% disease control): Rate 10 ppm test suspension, relative to the controls. Put shortly: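 Wheat seedlings received a run-off spray of test suspension (ppm rate as listed; acetone/water 50/50, 250 ppm PEG400 surfactant). Leaf rust spore inoculation followed one day later, then 24 h at 20° C in saturated air and 6 days at 20° C before disease was scored visually.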

Marks after values point to notes of the source that are not given here.

As to `CCOC(=O)c1ccc(Cc2ccc(-c3noc(C(F)(F)F)n3)cc2)cc1` [compound 453], the “Test B rating (% disease control)” value in the assay on Zymoseptoria tritici (250 ppm test suspension) was 50* %. The “Test A rating (% disease control)” value with Phakopsora pachyrhizi amounted to 92%. Besides, the “Test C rating (% disease control)” value in assay [1] was 0%.
With `COCCNC(=O)c1csc(COc2ccc(-c3noc(C(F)(F)F)n3)cc2)n1` [compound 469], in the assay on Zymoseptoria tritici (250 ppm test suspension), the “Test B rating (% disease control)” value is given as 65* %. The “Test A rating (% disease control)” value in the assay with Phakopsora pachyrhizi is reported as 96%. For the same compound, the “Test C rating (% disease control)” value in assay [1] came out at 86%.
The matching figures for `FC(F)(F)c1nc(-c2ccc(Cc3ccccc3)cc2)no1` [compound 451]: 8* %, 99% and 0%.
The matching figures for `COC(=O)c1cnc(Oc2ccc(-c3noc(C(F)(F)F)n3)cc2)s1` [compound 452]: 59* %, 81% and 0%.
On to `COC(=O)c1cnn(Cc2ccc(-c3noc(C(F)(F)F)n3)cc2)c1` [compound 21], for which the “Test B disease control rating” value in the assay with Zymoseptoria tritici (100 ppm test suspension (double asterisk **)) is 97** %. In addition, the “Test A disease control rating” value with Phakopsora pachyrhizi (10 ppm test suspension) is listed as 100%. The “Test C disease control rating” value in assay [1] (10 ppm test suspension) turned out to be 100%.
Turning to “1,3-dihydro-1-methyl-3-[[4-[5-(trifluoromethyl)-1,2,4-oxadiazol-3-yl]phenyl]methyl]-2H-benzimidazol-2-one [Compound 159]”, the “Test B disease control rating” value with Zymoseptoria tritici (250 ppm test suspension) was 0%. Further, the “Test A disease control rating” value in the assay on Phakopsora pachyrhizi (250 ppm test suspension) is 100%. For the same compound, in assay [1] (250 ppm test suspension), the “Test C disease control rating” value came to 100%.
Turning to `CN(C)C(=O)C1=NOC(C)(Cn2cc(-c3noc(C(F)(F)F)n3)cn2)C1` (racemic) [compound 306], the “Test B disease control rating” value in the assay with Zymoseptoria tritici (250 ppm test suspension) was 10* %. For the same compound, the “Test A disease control rating” value with Phakopsora pachyrhizi (50 ppm test suspension) stood at 0%. Moreover, the “Test C disease control rating” value in assay [1] (50 ppm test suspension) is 0%.
Consider `O=C(NCCOC(F)(F)F)c1coc(Cc2ccc(-c3noc(C(F)(F)F)n3)cc2)n1` [compound 401], for which the “Test B rating (% disease control)” value in the assay with Zymoseptoria tritici (250 ppm test suspension) was 77* %. Also, the “Test A rating (% disease control)” value with Phakopsora pachyrhizi came to 100%. In assay [1], the “Test C rating (% disease control)” value turned out to be 99%.
